Source: ChEMBL document CHEMBL1128778 (Bioorg Med Chem Lett, 1995)

What was measured:
Mus musculus [1] = organism: Mus musculus; assay: Compound was evaluated for its effective dose in the oral mouse cholesterol biosynthesis assay.; type: functional
Squalene synthase = molecular target: T1, Squalene synthase (Rattus norvegicus, UniProt Q02769); assay: Inhibitory activity against squalene synthase in rat liver; not active
T1 sequence (Q02769 whole entry): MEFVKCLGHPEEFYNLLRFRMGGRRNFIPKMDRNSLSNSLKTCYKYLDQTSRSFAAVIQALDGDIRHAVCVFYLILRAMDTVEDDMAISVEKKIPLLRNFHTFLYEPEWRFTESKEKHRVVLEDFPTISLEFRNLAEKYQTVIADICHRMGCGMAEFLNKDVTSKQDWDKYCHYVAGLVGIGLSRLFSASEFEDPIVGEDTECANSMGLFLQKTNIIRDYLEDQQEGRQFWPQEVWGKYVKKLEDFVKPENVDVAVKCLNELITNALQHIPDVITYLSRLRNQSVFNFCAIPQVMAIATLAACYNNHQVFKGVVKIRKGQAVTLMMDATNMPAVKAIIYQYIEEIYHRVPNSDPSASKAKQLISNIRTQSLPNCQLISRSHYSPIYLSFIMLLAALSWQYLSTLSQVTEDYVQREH

Mus musculus [2] = assay: Ability to inhibit mouse hepatic cholesterol biosynthesis when dosed orally at 6 mg/kg; type: functional; conditions: route oral
Mus musculus [3] = assay: Ability to inhibit mouse hepatic cholesterol biosynthesis when dosed orally at 24 mg/kg; type: functional; conditions: route oral
Mus musculus [4] = assay: Ability to inhibit mouse hepatic cholesterol biosynthesis when dosed orally at 12 mg/kg; type: functional; conditions: route oral
Rattus norvegicus = organism: Rattus norvegicus; assay: Dose required for inhibition of cholesterol biosynthesis in rats was determined; type: functional
[5] = Mus musculus, po, read-out: ED50

SMILES	Ki (Squalene synthase)	ED50 (Mus musculus [1]; [5]) [mg/kg]	other results
C=C(CCC12OC(C(=O)OC(C)C)C(O)(C(=O)OCOC(=O)C(C)(C)C)C(C(=O)O)(O1)[C@H](OC(=O)/C=C/[C@@H](C)C[C@@H](C)CC)[C@H]2O)[C@@H](OC(C)=O)[C@H](C)Cc1ccccc1 (stereo partly drawn)	Not Active	4	
C=C(CCC12OC(C(=O)O)C(O)(C(=O)O)C(C(=O)O)(O1)[C@H](OC(=O)/C=C/[C@@H](C)C[C@@H](C)CC)[C@H]2O)[C@@H](OC(C)=O)[C@H](C)Cc1ccccc1 (stereo partly drawn) [ZARAGOZIC ACID A]		100	
C=C(CCC12OC(C(=O)OCC(=O)OC(C)(C)C)C(O)(C(=O)OCOC(=O)C(C)(C)C)C(C(=O)O)(O1)[C@H](OC(=O)/C=C/[C@@H](C)C[C@@H](C)CC)[C@H]2O)[C@@H](OC(C)=O)[C@H](C)Cc1ccccc1 (stereo partly drawn)	Not Active		inhibition in vivo at 24 mg/kg (Mus musculus [3]): 45%
C=C(CCC12OC(C(=O)NCCOC)C(O)(C(=O)OCOC(=O)C(C)(C)C)C(C(=O)O)(O1)[C@H](OC(=O)/C=C/[C@@H](C)C[C@@H](C)CC)[C@H]2O)[C@@H](OC(C)=O)[C@H](C)Cc1ccccc1 (stereo partly drawn)	Not Active		inhibition in vivo at 12 mg/kg (Mus musculus [4]): 18%
C=C(CCC12OC(C(=O)NC(C)C)C(O)(C(=O)OCOC(=O)C(C)(C)C)C(C(=O)O)(O1)[C@H](OC(=O)/C=C/[C@@H](C)C[C@@H](C)CC)[C@H]2O)[C@@H](OC(C)=O)[C@H](C)Cc1ccccc1 (stereo partly drawn)			inhibition in vivo at 24 mg/kg (Mus musculus [3]): 41%
C=C(CCC12OC(C(=O)OCCC(C)C)C(O)(C(=O)OCOC(C)=O)C(C(=O)O)(O1)[C@H](OC(=O)/C=C/[C@@H](C)C[C@@H](C)CC)[C@H]2O)[C@@H](OC(C)=O)[C@H](C)Cc1ccccc1 (stereo partly drawn)		6	
C=C(CCC12OC(C(=O)O)C(O)(C(=O)OCOC(=O)C(C)(C)C)C(C(=O)O)(O1)[C@H](OC(=O)/C=C/[C@@H](C)C[C@@H](C)CC)[C@H]2O)[C@@H](OC(C)=O)[C@H](C)Cc1ccccc1 (stereo partly drawn)			inhibition in vivo at 24 mg/kg (Mus musculus [3]): 0%

The next lines start with results.

Ki (Squalene synthase)	SMILES	ED50 (Mus musculus [1]; [5]) [mg/kg]	other results
Not Active	C=C(CCC12OC(C(=O)OCCC(C)C)C(O)(C(=O)OCOC(=O)C(C)(C)C)C(C(=O)O)(O1)[C@H](OC(=O)/C=C/[C@@H](C)C[C@@H](C)CC)[C@H]2O)[C@@H](OC(C)=O)[C@H](C)Cc1ccccc1 (stereo partly drawn)	9	ED50 (Mus musculus [1]): 9 mg/kg
Not Active	C=C(CCC12OC(C(=O)OCC(=O)OC)C(O)(C(=O)OCOC(=O)C(C)(C)C)C(C(=O)O)(O1)[C@H](OC(=O)/C=C/[C@@H](C)C[C@@H](C)CC)[C@H]2O)[C@@H](OC(C)=O)[C@H](C)Cc1ccccc1 (stereo partly drawn)		inhibition in vivo at 6 mg/kg (Mus musculus [2]): 0%
Not Active	C=C(CCC12OC(C(=O)OCCCC)C(O)(C(=O)OCOC(=O)C(C)(C)C)C(C(=O)O)(O1)[C@H](OC(=O)/C=C/[C@@H](C)C[C@@H](C)CC)[C@H]2O)[C@@H](OC(C)=O)[C@H](C)Cc1ccccc1 (stereo partly drawn)		inhibition in vivo at 6 mg/kg (Mus musculus [2]): 18%
Not Active	C=CCOC(=O)C1OC2(CCC(=C)[C@@H](OC(C)=O)[C@H](C)Cc3ccccc3)OC(C(=O)O)([C@H](OC(=O)/C=C/[C@@H](C)C[C@@H](C)CC)[C@H]2O)C1(O)C(=O)OCOC(=O)C(C)(C)C (stereo partly drawn)	2	
Not Active	C=C(CCC12OC(C(=O)OCCOC)C(O)(C(=O)OCOC(=O)C(C)(C)C)C(C(=O)O)(O1)[C@H](OC(=O)/C=C/[C@@H](C)C[C@@H](C)CC)[C@H]2O)[C@@H](OC(C)=O)[C@H](C)Cc1ccccc1 (stereo partly drawn)		inhibition in vivo at 6 mg/kg (Mus musculus [2]): 18%
Not Active	C=C(CCC12OC(C(=O)OC)C(O)(C(=O)OCOC(=O)C(C)(C)C)C(C(=O)O)(O1)[C@H](OC(=O)/C=C/[C@@H](C)C[C@@H](C)CC)[C@H]2O)[C@@H](OC(C)=O)[C@H](C)Cc1ccccc1 (stereo partly drawn)	3.3	
Not Active	C=C(CCC12OC(C(=O)OCC)C(O)(C(=O)OCOC(=O)C(C)(C)C)C(C(=O)O)(O1)[C@H](OC(=O)/C=C/[C@@H](C)C[C@@H](C)CC)[C@H]2O)[C@@H](OC(C)=O)[C@H](C)Cc1ccccc1 (stereo partly drawn)	2.6	ED50 (Rattus norvegicus): 18 mg/kg
Not Active	C=C(CCC12OC(C(=O)OCCC)C(O)(C(=O)OCOC(=O)C(C)(C)C)C(C(=O)O)(O1)[C@H](OC(=O)/C=C/[C@@H](C)C[C@@H](C)CC)[C@H]2O)[C@@H](OC(C)=O)[C@H](C)Cc1ccccc1 (stereo partly drawn)	2	
